Results on five compounds are retold here after ChEMBL document CHEMBL4316582, “Nitro-Group-Containing Drugs” (J Med Chem, 2019).

Data set [1] deals with Mycobacterium tuberculosis. Description: Antitubercular activity against Mycobacterium tuberculosis H37Ra after 8 days by visual analysis. In kind it is functional. To be noted: 192 h.
In data set [2] the test system is HeLa. As to the kind of experiment: Cytotoxicity against human HeLa cells assessed as reduction in cell viability after 2 hrs in presence of AZD7765 by Alamar blue assay. Type of data set: functional, cell-based.
The subject of data set [3] is HeLa. Description: Cytotoxicity against human HeLa cells assessed as reduction in cell viability after 2 hrs in presence of LY2603618 by Alamar blue assay. In kind it is functional, cell-based.
Data set [4] deals with NCI-H460. As to the kind of experiment: Cytotoxicity against human NCI-H460 cells assessed as reduction in cell viability after 2 hrs in presence of LY2603618 by Alamar blue assay. Type of data set: functional, cell-based. To be noted: NCI-H460, 2 h.
In data set [5] the test system is HT-29. Description: Cytotoxicity against human HT-29 cells assessed as reduction in cell viability after 2 hrs in presence of PF477736 by Alamar blue assay. Type of data set: functional, cell-based. The following applies: HT-29, 2 h.
The test system of the next data set is DU-145. Description: Cytotoxicity against human DU145 cells assessed as reduction in cell viability after 2 hrs in presence of AZD7765 by Alamar blue assay. To be noted: DU-145, 2 h. In kind it is functional, cell-based.
Data set [6] has as its system NCI-H460. As to the kind of experiment: Cytotoxicity against human NCI-H460 cells assessed as reduction in cell viability after 2 hrs in presence of AZD7765 by Alamar blue assay. Type of data set: functional, cell-based. The following applies: NCI-H460, 2 h.
Data set [7] has as its system NCI-H460. As to the kind of experiment: Cytotoxicity against human NCI-H460 cells assessed as reduction in cell viability after 2 hrs in presence of PF477736 by Alamar blue assay. Type of data set: functional, cell-based. To be noted: NCI-H460, 2 h.
Data set [8] deals with HT-29. As to the kind of experiment: Cytotoxicity against human HT-29 cells assessed as reduction in cell viability after 2 hrs in presence of LY2603618 by Alamar blue assay. Type of data set: functional, cell-based. The following applies: HT-29, 2 h.
Data set [9] has as its system HT-29. Description: Cytotoxicity against human HT-29 cells assessed as reduction in cell viability after 2 hrs in presence of AZD7765 by Alamar blue assay. In kind it is functional, cell-based. To be noted: HT-29, 2 h.
The target in data set [10] is T1, Oxygen-insensitive NAD(P)H nitroreductase (Escherichia coli K-12, UniProt P38489).
T1 sequence (P38489 whole entry): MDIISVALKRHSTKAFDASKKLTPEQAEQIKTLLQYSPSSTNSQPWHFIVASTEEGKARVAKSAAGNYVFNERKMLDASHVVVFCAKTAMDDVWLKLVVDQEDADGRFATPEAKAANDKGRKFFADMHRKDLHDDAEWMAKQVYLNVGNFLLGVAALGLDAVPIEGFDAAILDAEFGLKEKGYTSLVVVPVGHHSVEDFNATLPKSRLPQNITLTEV
As to the kind of experiment: Susbtrate activity at Escherichia coli nitroreductase assessed as half life. Type of data set: ADME.

Data set [11] deals with T1, Oxygen-insensitive NAD(P)H nitroreductase. As to the kind of experiment: Inhibition of Escherichia coli nitroreductase expressed in human HCT116 cells. In kind it is cell-based.
Data set [12] in a line: Inhibition of Escherichia coli nitroreductase F179 mutant.
Another data set has as its target T2, Quinone oxidoreductase (Homo sapiens, UniProt Q08257).
T2 sequence (Q08257 whole entry): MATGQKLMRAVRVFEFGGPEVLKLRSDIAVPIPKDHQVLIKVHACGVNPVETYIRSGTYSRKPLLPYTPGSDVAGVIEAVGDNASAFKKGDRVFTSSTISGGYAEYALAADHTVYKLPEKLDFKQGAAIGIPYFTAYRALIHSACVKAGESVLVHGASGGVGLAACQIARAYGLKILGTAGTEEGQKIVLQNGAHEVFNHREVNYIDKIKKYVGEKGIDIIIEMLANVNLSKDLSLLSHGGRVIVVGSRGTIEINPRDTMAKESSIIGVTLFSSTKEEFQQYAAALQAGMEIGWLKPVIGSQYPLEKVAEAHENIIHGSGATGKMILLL
Description: Inhibition of human Quinone oxidoreductase.

Data set [13] can be described thus: Half life in mouse at 10 mg/kg. In kind it is ADME, organism-based. To be noted: in vivo.
Data set [14] in a line: Tmax in mouse at 10 mg/kg. In kind it is ADME, organism-based. To be noted: in vivo.
Data set [15] concerns NCI-H460. Description: Cytotoxicity against human NCI-H460 cells assessed as reduction in cell viability after 2 hrs under hypoxic conditions by Alamar blue assay. To be noted: NCI-H460, 2 h. In kind it is functional, cell-based.
Data set [16] has as its system NCI-H460. As to the kind of experiment: Cytotoxicity against human NCI-H460 cells assessed as reduction in cell viability after 2 hrs under normoxic conditions by Alamar blue assay. In kind it is functional, cell-based. The following applies: NCI-H460, 2 h.
A short description of data set [17]: Clearance in mouse at 10 mg/kg. Type of data set: ADME, organism-based. The following applies: in vivo.
The nature of data set [18]: Cmax in mouse at 10 mg/kg. In kind it is ADME, organism-based. Details: dose 10 mg/kg. To be noted: in vivo.

Converted amounts (≈) assume the structure as drawn.

The compound `COc1ccc(CNC(=O)c2ccc([N+](=O)[O-])o2)cc1OC` gave an MIC in [1] of 0.2 µM (≈ 0.0613 µg/mL).

As to `Cn1c(COP(=O)(NCCCl)NCCCl)cnc1[N+](=O)[O-]`, the IC50 worked out at 95 mM with HeLa [2]; 90 mM in the data set with HeLa [3]; 22 mM in the data set on NCI-H460 [4]; 57 mM in the data set on HT-29 [5]; 80 mM in the data set with DU-145; 25 mM in the data set on NCI-H460 [6]. Besides, the IC50 with NCI-H460 [7] is 19 mM; with HT-29 [8], 46 mM; with HT-29 [9] it was 39 mM.

As for `O=[N+]([O-])c1ccc2c(c1)OP(=O)(N(CCCl)CCCl)NC2` (stereo unspecified), the half-life in data set [10] was 11 min. Further, the IC50 was determined as 48 µM in data set [11], 61 µM in [12] and 48 µM against Quinone oxidoreductase.

In data set [13], `COc1cccc2c1C(=O)c1c(O)c3c(c(O)c1C2=O)C[C@@](O)(C(C)=O)C[C@@H]3O[C@H]1C[C@H](NCOCCn2ccnc2[N+](=O)[O-])[C@H](O)[C@H](C)O1` returned a half-life of 28.8 min. For the same compound, in data set [14], the Tmax is 5 min. Moreover, the IC50 is 23 nM in the data set with NCI-H460 [15] and 9.8 µM in the data set on NCI-H460 [16]. In addition, the clearance in data set [17] stood at 188 mL/min/kg. For the same compound, the highest concentration (Cmax) in data set [18] was 1820 ng/mL.

Compound `O=[N+]([O-])c1ccc(C2CCOP(=O)(N(CCCl)CCCl)N2)cc1` (stereo unspecified) registered an IC50 on Quinone oxidoreductase of 48 µM.
